One series relates to C57BL/6J wild-type mice. The series can be described thus: ERG retinal function in C57BL/6J wild-type mice after oral gavage. The settings on record: 1.75 μmol per mouse oral; for ERG signal compared with nontreated control: 6 h post-treatment; for ERG signal compared with untreated control: 24 h post treatment. The series is classed as in vivo. How it is done:
All ERG procedures were performed by published methods. For single-flash recording, the duration of white-light flash stimuli (from 20 μs to 1 ms) was adjusted to provide a range of illumination intensities (from −3.7 to 1.6 log cd s m-2). Three to five recordings were made at sufficient intervals between flash stimuli (from 3 s to 1 min) to allow recovery from any photobleaching effects.
Strong inhibition of retinoid cycle could cause temporary vision impairment. Electroretinograms (ERGs) were recorded to in retinal function in C57BL/6J wild-type mice at 6 and 24 h after oral gavage of RVG, RF or Ret-NH2 at a dose of 1.75 μmol per mouse.

Series [1] is described as follows: Biodistribution of N-retinylamides and retinylamine derivatives in liver and eye after oral gavage. In kind it is in vivo, mouse. The settings on record: for original drug detected in the eye: 2 h and 16 h. As for the experimental part:
Female C57BL mice (4-week-old) were randomly divided into seven groups, six treated groups and one control group. Free Ret-NH2 (3.5 μmol per mouse, dissolved in DMSO and dispersed in vegetable oil) or retinylamine derivatives (Ret-Gly, Ret-L-Val-Gly, Ret-L-Phe, Ret-L-Leu, Ret-L-Val, 3.5 μmol per mouse, dissolved in DMSO and dispersed in vegetable oil) was administered by gastric gavage, control group was only gavaged vegetable oil. Then at each predetermined time point (2 and 16 h after drug administration), 3 mice were sacrificed. The liver and eye balls were collected to determine tissue N-retinylamide content for pharmacokinetic analysis. A portion of the liver tissue (0.3-0.5 g) was weighed, homogenized in 2 mL 1:1 ethanol:PBS solution and the eye balls were similarly processed (eye balls were combined for 3 mice). N-Retinylamides were extracted in 4 mL hexane, concentrated, and reconstituted to a 300 μL volume for liver (200 μL for eye). Normal-phase HPLC (Agilent-Zorbax SIL; 5 μm; 4.5×250 mm; flow rate of 1.4 mL/min; 80:20 hexane:ethyl acetate (v:v); detection at 325 nm) was utilized to determine N-retinylamide concentration in these tissues.
Female C57BL mice (4-week-old) were randomly divided into seven groups, six treated groups and one control group. Free Ret-NH2 (3.5 μmol per mouse, dissolved in DMSO and dispersed in vegetable oil) or retinylamine derivative (Ret-Gly, Ret-L-Val-Gly, Ret-L-Phe, Ret-L-Leu, Ret-L-Val, 3.5 μmol per mouse, dissolved in DMSO and dispersed in vegetable oil) was administered by gastric gavage, control group was only gavaged vegetable oil. Then at each predetermined time point (2 and 16 h after drug administration), 3 mice were sacrificed. The liver and eye balls were collected to determine tissue drug content for pharmacokinetic analysis. A portion of the liver tissue (0.3-0.5 g) was weighed, homogenized in 2 mL 1:1 ethanol:PBS solution and the eye balls were similarly processed. Retinylamine or its derivative was extracted in 4 mL ethyl acetate, concentrated, and reconstituted to a 300 μL volume for liver (200 μL for eye). Reverse-phase HPLC (analytical C18 reverse column; 5 μm; 250 mm×4.6 mm; flow rate of 1.0 mL/min; 60:40 acetonitrile:H2O (v:v) with 0.05% trifluoroacetic acid; detection at 325 nm) was utilized to determine retinylamine or its derivative in these tissues. […]
No N-retinylamides were detected in the eye at 2 h for all treated mice. The concentration of N-retinylamides in the liver of all treated mice increased at 16 h post-treatment. […] The concentrations of the original drugs were also determined in the liver and eye at 2 h and 16 h (FIGS. 7C, D). All tested drugs, including Ret-NH2, were detected in liver and their concentrations decreased from 2 h to 16 h.

A further series deals with ARPE19 cells. The series can be described thus: ARPE19 cell uptake. The settings on record: 10 μM, 16 h, compared with Ret-NH2. In kind it is cell-based, human. As for the experimental part: The ARPE19 cells (human RPE cells purchased from American Type Culture Collection) were plated in 6-well plates using Dulbecco's Modified Eagle Medium (DMEM) and allowed to grow to 90% confluency. The cells were then incubated with DMEM containing 10 μM derivatives for 16 hours under dark room conditions. Control group was cell without drug. Medium was removed and cells were washed three times by PBS after 16 h of incubation. Cells were then collected. Samples were treated with 400 μl of methanol, homogenized at 37° C. for 1 h, followed by a centrifugation. The 100 μl of the supernatant was analyzed by reverse phase HPLC. Reverse-phase HPLC (analytical C18 reverse column; 5 μm; 250 mm×4.6 mm; flow rate of 1.0 mL/min; 60:40 acetonitrile:H2O (v:v) with 0.05% trifluoroacetic acid; detection at 325 nm) was utilized to determine retinylamine or its derivative in […].

Series [2] is described as follows: Storage stability of RVG and Ret-NH2. In kind it is physicochemical. The text has this: The synthesis was straightforward, and Ret-NH2 reacted with fluorenylmethyloxycarbonyl (Fmoc) protected amino acids or peptides in the presence of coupling agents. The Fmoc group then was removed using 20% piperidine in […] solution to give target molecules. The retinylamine derivatives were characterized by ^1H-NMR, ^13C-NMR and mass spectroscopy. The retinylamine derivatives had the purity over 95% as determined by HPLC except 3m Ret-Gly-Gly (RGG) with the purity of 90% (see SI). We tested the stability of RVG. Less than 5% degradation was observed when RVG was stored in the desiccator under vacuum at r.t. for 2 months, while 95% of Ret-NH2 decomposed under the same condition within 1 week.

A further series concerns Caco-2 cells. The series can be described thus: Caco-2 cell monolayer transport. In kind it is in vitro ADME, human. The settings on record: 500 μM apical, PBS pH 6, within 24 h, compared with Ret-NH2. As for the experimental part: 1. Coating and preparing culture inserts for seeding: Rat tail collagen was diluted 1:9 with 0.5% acetic acid. The resulting solution (200 ul) was added to each insert to coat the surface. The inserts were air-dried overnight, followed by a UV irradiation for 45 min to sterilize the inserts. 2. Seeding cells onto an insert: A concentration of 4×10^5 cells/well EMEM solution containing 20% FBS was added to the precoated insert. Another 2 ml of fresh EMEM media was added to the other side (bottom). The media was changed after 1 day of incubation and every other day after that. The cells were cultured for 21 days until they were mature. 3. Transport experiment: The media was aspirated out. The cell monolayers were washed with PBS three times. Cells were further incubated with PBS for 1 h under 37° C. to allow them to release all the materials that may be taken up during incubation. PBS solution was removed and the prodrug solution (500 μM in 2.0 ml PBS (pH=6) solution) was loaded to the apical side. The basolateral side was loaded with 2.5 ml fresh PBS solution. The plates were incubated under 37° C. Samples of 200 μl were withdrawn from the basolateral side at several time points within 24 h. The drug release amount was determined by UV spectrometer.

Setting [3] is: 3.5 μmol per mouse oral, C57BL mice, 16 h.

The structures appear in SMILES notation.

Consider `CC1=C(/C=C/C(C)=C/C=C/C(C)=C/CNC(=O)[C@@H](NC(=O)CN)C(C)C)C(C)(C)CCC1` [RVG, (S)-2-(2-aminoacetamido)-N-((2E,4E,6E,8E)-3,7-dimethyl-9-(2,6,6-trimethylcyclohex-1-en-1-yl)nona-2,4,6,8-tetraen-1-yl)-3-methylbutanamide], for which, in the series on C57BL/6J wild-type mice, the “ERG signal compared with nontreated control” value is “attenuated ERG signal” and the “ERG signal compared with untreated control” value was “recover to the magnitude of the untreated control mice”. Further, the “original drug detected in the eye” value in series [1] (3.5 μmol per mouse oral) is recorded as “only detected at 16 h”. In series [1] (setting [3]), the “N-retinylamides in the eye” value is “no detectable N-retinylamides in the eye”; the “liver concentration of N-retinylamides” value is “lower liver concentration of N-retinylamides than RF and RL”. For the same compound, the “uptake in ARPE19 cells” value in the series with ARPE19 cells is “higher uptake in ARPE19 cells than Ret-NH2”. Further, the degradation on storage entry in series [2] (stored in the desiccator under vacuum at r.t. for 2 months) is “Less than 5%”. Moreover, the “transport through the Caco-2 monolayer” value in the series with Caco-2 cells was “significantly higher transport through the Caco-2 monolayer”.
As for `CC1=C(/C=C/C(C)=C/C=C/C(C)=C/CN)C(C)(C)CCC1` [Ret-NH2, (2E,4E,6E,8E)-3,7-dimethyl-9-(2,6,6-trimethylcyclohex-1-en-1-yl)nona-2,4,6,8-tetraen-1-amine], in the series on C57BL/6J wild-type mice (first 24 h after the treatment), the “ERG signal in the retina” value was “no significant ERG signal was detected”. In addition, in series [1] (3.5 μmol per mouse oral), the “original drug detected in the eye” value is given as “No free Ret-NH2 was detected in the eye”. The decomposed on storage in series [2] (desiccator under vacuum at r.t., within 1 week) was found to be 95%.
Take `CC1=C(/C=C/C(C)=C/C=C/C(C)=C/CNC(=O)[C@@H](N)Cc2ccccc2)C(C)(C)CCC1` [RF, (S)-2-amino-N-((2E,4E,6E,8E)-3,7-dimethyl-9-(2,6,6-trimethylcyclohex-1-en-1-yl)nona-2,4,6,8-tetraen-1-yl)-3-phenylpropanamide]: in the series on C57BL/6J wild-type mice, the “ERG signal compared with nontreated control” value is reported as “attenuated ERG signal” and the “ERG signal compared with untreated control” value is “recover to the magnitude of the untreated control mice”. Further, the “original drug detected in the eye” value in series [1] (3.5 μmol per mouse oral) is recorded as “only detected at 2 h”. Also, in series [1] (conclusion from biodistribution at 2 h and 16 h), the “metabolism in the eye” value was “rapidly metabolized into inactive N-retinylamides in the eye”. Also, in the series with ARPE19 cells, the “uptake in ARPE19 cells” value is given as “higher uptake in ARPE19 cells than Ret-NH2”. Besides, in the series with Caco-2 cells, the “transport through the Caco-2 monolayer” value was “significantly higher transport through the Caco-2 monolayer”.

Values taken from US10471118B2, “Retinylamine derivitives for treatment of ocular disorders” (CASE WESTERN RESERVE UNIVERSITY, priority 2014, dated 2019).
